In the test the test system is Hedgehog pathway. The test is described as follows: Hedgehog Pathway Cellular Differentiation Assay (alkaline phosphatase production in C3H10T1/2 cells with Shh ligand). The class given is cell-based. The note with it: Mus musculus, C3H 10T1/2, 3 μM compound, Shh ligand conditioned media, 72 h, alkaline phosphatase. In short, it runs like this: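 C3H10T1/2 cells in DMEM/2% FBS with Shh-conditioned medium were treated 72 h with compound, threefold dilutions from 30 μM to 3 nM. After RIPA lysis, alkaline phosphatase was read with pNp (1 mg/mL, diethanolamine pH 9.8) at 30 °C, absorbance 405 nm. Percent inhibition and IC50 came from absorbance.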
`Cc1cc(F)c(-c2ncc[nH]2)cc1NC(=O)c1ccc(OCc2ccccn2)cc1` [Example 102, N-[4-fluoro-5-(1H-imidazol-2-yl)-2-methylphenyl]-4-(pyridin-2-ylmethoxy)benzamide]: the inhibition (as a rule, the relative decrease from the control value, in per cent) at 3 µM turned out to be 87.1%.
To `Cc1nc(-c2cc(NC(=O)c3ccc(OCc4ccccn4)cc3)c(C)cc2F)c[nH]1` [Example 103, N-[4-fluoro-2-methyl-5-(2-methyl-1H-imidazol-4-yl)phenyl]-4-(pyridin-2-ylmethoxy)benzamide] belongs 85.6%.
With `O=C(Nc1cc(-c2ncc[nH]2)ccc1Cl)c1ccc(OCc2ccccn2)cc1` [Example 105, N-[2-chloro-5-(1H-imidazol-2-yl)phenyl]-4-(pyridin-2-ylmethoxy)benzamide], the inhibition at 3 µM is 82.1%.
As for `O=C(Nc1cc(-c2nc3ccccc3[nH]2)ccc1Cl)c1ccc(OCc2ccccn2)cc1` [Example 106, N-[5-(1H-benzimidazol-2-yl)-2-chlorophenyl]-4-(pyridin-2-ylmethoxy)benzamide], the inhibition at 3 µM was 81.6%.
On to `Cc1ccc(-c2ncc[nH]2)cc1NC(=O)c1ccc(C#Cc2ccccn2)cc1` [Example 107, N-[5-(1H-imidazol-2-yl)-2-methylphenyl]-4-(pyridin-2-ylethynyl)benzamide], for which the inhibition at 3 µM came out at 92.3%.
The figure for `Cc1ccc(-c2ncc[nH]2)cc1NC(=O)c1ccc(CCc2ccccn2)cc1` [Example 108, N-[5-(1H-imidazol-2-yl)-2-methylphenyl]-4-(2-pyridin-2-ylethyl)benzamide] is 92.4%; for `Cc1ccc(-c2ncc[nH]2)cc1NC(=O)c1ccc(/C=C/c2ccccn2)cc1` [Example 109, N-[5-(1H-imidazol-2-yl)-2-methylphenyl]-4-[(E)-2-pyridin-2-ylethenyl]benzamide] it is 91.3%.
The figure for `Cc1ccc(-c2ncc[nH]2)cc1NC(=O)c1ccc(OC(C)c2ccccn2)cc1` (stereo not drawn) [Example 110, N-[5-(1H-imidazol-2-yl)-2-methylphenyl]-4-(1-pyridin-2-ylethoxy)benzamide] is 92.3%; for `Cc1ccc(-c2ncc[nH]2)cc1NC(=O)c1ccc(OCc2ccccn2)nc1` [Example 111, N-[5-(1H-imidazol-2-yl)-2-methylphenyl]-6-(pyridin-2-ylmethoxy)pyridine-3-carboxamide] it is -0.1%.
To `Cc1ccc(-c2ncc[nH]2)cc1NC(=O)c1ccc(OCc2ccccn2)cn1` [Example 112, N-[5-(1H-imidazol-2-yl)-2-methylphenyl]-5-(pyridin-2-ylmethoxy)pyridine-2-carboxamide] belongs 54.3%; to `Cc1cc(C)c(-c2cn(C)cn2)cc1NC(=O)c1ccc(OCc2ccccn2)cn1` [Example 113, N-(2,4-dimethyl-5-(1-methyl-1H-imidazol-4-yl)phenyl)-5-(pyridin-2-ylmethoxy)picolinamide], 84.7%.
Regarding `Cc1ccc(-c2c[nH]nn2)cc1NC(=O)c1ccc(OCc2ccccn2)cc1` [Example 114, N-(2-methyl-5-(1H-1,2,3-triazol-4-yl)phenyl)-4-(pyridin-2-ylmethoxy)benzamide], the inhibition at 3 µM was found to be 73.2%.
As for `Cc1ccc(-c2nccn2C)cc1NC(=O)c1ccc(OCc2cc(N3CCN(C)CC3)ccc2C#N)cc1` [Example 115, 4-(2-cyano-5-(4-methylpiperazin-1-yl)benzyloxy)-N-(2-methyl-5-(1-methyl-1H-imidazol-2-yl)phenyl)benzamide], the inhibition at 3 µM is 82.8%.
Regarding `Cc1ccc(-c2nccn2C)cc1NC(=O)c1ccc(OCc2cc(N(C)CCN(C)C)ccc2C#N)cc1` [Example 116, 4-[(2-cyano-5-{[2-(dimethylamino)ethyl](methyl)amino}benzyl)oxy]-N-[2-methyl-5-(1-methyl-1H-imidazol-2-yl)phenyl]benzamide], the inhibition at 3 µM was 83.4%.
Regarding `Cc1ccc(-c2ncc[nH]2)cc1NC(=O)c1ccc(NCc2ccccn2)cc1` [Example 117, N-(5-(1H-imidazol-2-yl)-2-methylphenyl)-4-(pyridin-2-ylmethylamino)benzamide], the inhibition at 3 µM stood at 68.8%.

(Values after patent US20100311748A1, “HETEROCYCLIC AMIDES USEFUL FOR THE TREATMENT OF CANCER AND PSORIASIS” (ASTRAZENECA AB, priority 2007, published 2010).)
